{
  "source": "patent US7683055B2",
  "about": "“Lanthionine-related compounds for the treatment of inflammatory diseases” (Oklahoma Medical Research Foundation, priority 2006, dated 2010)",
  "key": {"EOC-20 microglia": {"system": "EOC-20 microglia", "assay": "TNFα-stimulated nitrite production in EOC-20 microglia (Griess assay)", "assay_type": "cell-based, mouse", "settings": "for net suppression of nitrite: TNFα-stimulated, nitrite measured 24 h later", "description": "Mouse EOC-20 microglia (American Tissue Type Collection, Gaithersville Md. USA) (Hensley et al., 2003; Walker et al., 1995) were grown in DMEM containing 20% L929 fibroblast-supplemented medium. Nitrite production by cytokine stimulated microglia was measured in cell culture medium using the Griess diazotization reaction as previously reported (Hensley et al., 2003; West et al., 2004).\nThe efficacy of (R)-LKE1 and (R)-LK as inhibitors of microglial cell activation in response to pro-inflammatory cytokines is shown in FIGS. 1A & 1B. EOC-20 murine microglial cells were pretreated 30 minutes with test compounds (e.g. (R)-LK or (R)-LKE1) dissolved in DMSO and diluted 1:200 into cell culture medium; or with DMSO vehicle only. Cells were then challenged with cytokine and allowed to incubate undisturbed in the cell culture incubator for 24 h prior to Griess assay. The lanthionine ketimine ester in this case is the structure shown above as (R)-LKE1. After drug treatment cells were then stimulated with 40 ng/mL recombinant murine tumor necrosis factor alpha (TNF α) plus 50U/mL interferon gamma (IFNγ). Nitrite (NO2^−) was measured in the cell culture medium 24 hours later, as an index of nitric oxide production. Cell viability was then assayed in the same cultures using a commercially available tetrazolium reduction assay (Promega OneStep™; Promega, Gaithersburg Md.). Cell culture methods were those published by the inventor (Hensley et al., 2003; West et al., 2004).\nIn a EOC-20 microglial assay the cells were stimulated with TNFα in the presence or absence of 100 microM (R)- or (S)-LK, and nitrite was measured 24 h later, the net suppression of nitrite was 13% by (S)-LK and 15% by (R)-LK.\nThe reduced lanthionine ketimine (i.e., TMDCA) was also tested against TNFα-stimulated nitrite production in the EOC-20 screen."}, "NSC-34 cells": {"system": "NSC-34 cells", "assay": "NSC-34 viability after H2O2 challenge (tetrazolium reduction)", "assay_type": "cell-based, mouse", "settings": "for protection against H2O2: 0.5 mM, 6 h pretreatment, 1 mM H2O2, viability 24 h later", "description": "NSC-34 cells were challenged directly with H2O2 for 24 h and the viability was assessed by tetrazolium reduction assay.\nFurthermore, the invention contemplates that cytoprotection might be achieved by providing metabolic precursors to LK, rather than direct addition of the compound. For example, the inventor has studied the effects of NSC-34 cells treated with ethyl pyruvate in the presence or absence of lanthionine for 6 h prior to challenge with H2O2 and has assayed the viability of these cells 24 h later (FIG. 10). As reported in previous studies, ethyl pyruvate alone was protective against peroxide-induced cell death (Desagher et al., 1997; Nakamichi et al., 2005) with complete protection at ethyl pyruvate concentrations >1 mM (approximately 2-fold higher than ambient cell culture medium pyruvate concentrations; data not shown).\n(R)-LKE1 protects NSC-34 motoneuron x neuroblastoma hybrid cells from hydrogen peroxide toxicity (FIG. 4). Cells were treated with the indicated concentration of (R)-LKE1. Thirty minutes later cells were challenged with the indicated concentration of hydrogen peroxide. Cell viability was assayed 24 hours later by tetrazolium reduction using a commercially available kit (Promega).\nNSC-34 motor neuron-like cells, derived through the fusion of a neuroblastoma cell line with embryonic mouse motor neurons (Cashman et al., 1992), were grown in Dulbeco's modified essential medium (DMEM) plus 5% fetal bovine serum (FBS) and 1% penicillin plus 1% streptomycin (Pen/Strep). Recombinant TNFα and interferon gamma (IFNγ) were purchased from BD Biosciences (Pasadena Calif. USA). Lanthionine was purchased from Sequoia Research Products Ltd. (Pangbourne, UK). All other reagents were of the highest available commercial purity.\nNSC-34 cells were exposed to 1 mM H2O2 with or without ethyl-pyruvate and/or lantionine (LK)."}, "synaptosomal membranes": {"target": "synaptosomal membranes", "settings": "read-out: affinity of binding to synaptosomal membranes; cited from earlier work"}, "HT4 cells": {"system": "HT4 cells", "assay": "glutamate toxicity in HT4 cells (LDH leakage)", "assay_type": "cell-based", "description": "(§1) FIG. 13. (R)-LK protects HT4 cells against excitotoxicity. Determination of cell viability: HT4 cells were seeded in 6 well plates (1×10^7 cell/well). After 24 h, cell media was changed and (R)-LK (in DMSO) was used for 1 h prior to glutamate challenge. Powdered (R)-LK was dissolved in DMSO just before use. The viability of cells in culture was assessed by measuring the leakage of lactate dehydrogenase (LDH) from cells to media 18-24 h following glutamate treatment using the in vitro toxicology assay kit from Sigma Chemical Co. (St. Louis, Mo., USA). LDH leakage was determined using the following equation: % of total LDH leaked=(LDH activity in the cell culture media/total LDH activity) where total LDH activity=LDH activity in cell monolayer+LDH activity of detached cells+LDH activity in the cell culture media.\nas §1, with “14. (R)-LKE1” for “13. (R)-LK”, “Determination of cell viability: HT4 cells were seeded in 6 well plates (1×10^7 cell/well). After 24 h, cell media was changed and (R)-LK (in DMSO) was used for 1 h prior to glutamate challenge. Powdered (R)-LK was dissolved in DMSO just before use.” left out, “media. […]” for “media.”"}},
  "data": [
    {"compound": "O=C(O)C1=N[C@H](C(=O)O)CSC1", "note": "[(R)-LK]", "values": [
      {"measurement": "net suppression of nitrite", "setting": "EOC-20 microglia; 100 microM", "result": 15, "unit": "%"},
      {"measurement": "protection from H2O2-induced cell death", "setting": "NSC-34 cells; H2O2 challenge 24 h", "result": "protects NSC-34 motor-neuron like cells from hydrogen peroxide toxicity"}
    ]},
    {"compound": "O=C(O)C1=CSC[C@H](C(=O)O)N1", "note": "[(S)-LK]", "values": [
      {"measurement": "net suppression of nitrite", "setting": "EOC-20 microglia; 100 microM", "result": 13, "unit": "%"}
    ]},
    {"compound": "O=C(O)C1CSCC(C(=O)O)N1", "note": "(centres unmarked) [TMDCA, thiomorpholine dicarboxylic acid]", "values": [
      {"measurement": "inhibition of the cytokine effect", "setting": "EOC-20 microglia; 100 microM, TNFα-stimulated nitrite production", "result": "about 32.5%"},
      {"measurement": "microglial activation, % of the maximum", "setting": "EOC-20 microglia; 100 microM, TNFα-stimulated nitrite production, +/- SD", "result": "67.5+/−3.8%"}
    ]},
    {"compound": "CCOC(=O)C(C)=O", "note": "[ethyl pyruvate]", "values": [
      {"measurement": "protection against H2O2", "setting": "NSC-34 cells", "result": "significant but partial protection"},
      {"measurement": "concentration giving complete protection against peroxide-induced cell death", "setting": "NSC-34 cells; data not shown", "result": "> 1", "unit": "mM"}
    ]},
    {"compound": "N[C@@H](CSC[C@H](N)C(=O)O)C(=O)O", "note": "[lanthionine]", "values": [
      {"measurement": "protection against H2O2", "setting": "NSC-34 cells", "result": "no protective effect"}
    ]},
    {"compound": "lanthionine ketimine [LK]", "values": [
      {"measurement": "inhibition of nitrite production", "setting": "EOC-20 microglia; TNFα-stimulated EOC-20 microglia", "result": "inhibited nitrite production"},
      {"measurement": "Kd", "setting": "synaptosomal membranes", "result": 50, "unit": "nM"},
      {"measurement": "glutamate toxicity (LDH release)", "setting": "HT4 cells", "result": "significantly diminished glutamate toxicity"}
    ]}
  ]
}
